Where two headings read alike, the source gives them in different places. Non-standard residues stand in square brackets, D forms with d. Residues, ends and D or L forms follow the SMILES beside them. ξ: configuration not given here. ξY = NC(Cc1ccc(O)cc1)C(=O)O; Nva = CCC[CH](N)C(=O)O
How the values were obtained:
DQ8 = DQ8 (Homo sapiens, UniProt P01909+P01920, A209T/A45G/C70Q/D89A/DUP78-78/E183D/E77G/F237L/G63E/H199R/I129T/K197E/L178F/L74F/L98V/Q57E/Q76R/S185I/S97I/T217I/T49S/V73L/Y58L); assay: Competitive binding assay B:9-23 to DQ8
[1] = test system: BDC 8-1.1α1 anti-B:9-23 T cell hybridoma; assay: T cell stimulation assay, B:9-23 activated TCR 8-1.1α1; assay type: cell-based; conditions: Mus musculus, read-out: IC50 for anti-B:9-23 TCRs 8-1.1α1
[2] = test system: BDC 12-4.1 anti-B:9-23 T cell hybridoma; assay: T cell stimulation assay, B:9-23 activated TCR BDC 12-4.1; assay type: cell-based; conditions: Mus musculus, read-out: IC50 for anti-B:9-23 TCRs BDC 12-4.1
BDC 2.5 T cell hybridoma = assay: Chromogranin peptide mimotope presentation by I-A^g^7 to BDC 2.5 T cell hybridoma; assay type: cell-based, mouse; conditions: specificity test
[3] = test system: human T cell receptor recognizing insulin B:9-23 presented by human DQ8; assay: Inhibition of human T cell receptor recognizing insulin B:9-23 presented by human DQ8; assay type: cell-based; conditions: for Inhibition of human T cell receptor recognition of insulin B:9-23 presented by human DQ8: screen of DQ8 pocket 1 and pocket 9 compounds; for Concentration at which inhibition is exhibited: DQ8 pocket 1 and pocket 9 compounds studied in detail
Excerpt: Using a TCR sequence obtained from a T cell line generated from the peripheral blood of a diabetic individual with DQ8 molecule, a TCR was identified that is DQ8 restricted and responds to the insulin B:9-23 peptide.
Molecules predicted to occupy pockets 1 and 9 of the human DQ8 peptide binding groove were identified using in silico molecular docking program. The top scoring compounds for each pocket were screened for their ability to inhibit anti-B:9-23 T cell responses. FIGS. 9A and 9B represent the results of the T cell stimulation assay for compounds occupying pocket 1 and pocket 9 of the human DQ8 peptide binding groove, respectively.

[4] = test system: CD3-stimulated T cell hybridomas; assay: CD3-stimulated T cell hybridomas (specificity control); assay type: cell-based
Excerpt: The small molecules p1:4, p1:12 and p1:16 were studied in additional detail.

[5] = test system: 5KC cells transduced with a 4-8 TCR; assay: Endogenous insulin presentation: whole insulin with I-A^g^7 splenocytes and 4-8 TCR transduced 5KC cells; assay type: cell-based, mouse; conditions: whole insulin with I-A^g^7 containing splenocytes
Method: The ability of the small molecules to block endogenous insulin presentation was tested. Incubation of whole insulin with I-A^g^7 containing splenocytes activates 5KC cells (T cell hybridoma lacking endogenous TCRα and β chains) transduced with a 4-8 TCR. […] To document direct effects of these small molecules on inhibiting peptide binding to I-A^g^7, an I-A^g^7 protein construct was expressed in baculovirus with a linked peptide. The flexible linker contained a thrombin cleavage site, allowing for thrombin cleavage of the linker and release of the peptide.

[6] = >100 uM means some effect at 100 uM but not 50% inhibition, < means lower concentrations not used

Compound: [H]/N=C(\N)NCCC(N)C(=O)O (stereo not shown) [p4:18]
- Competitive Binding Assay B:9-23 to DQ8 (IC50) (DQ8; [6]): No inhibition

Compound: C1CN2CN1CN1CCN(C1)C2
- IC50 ([1]; B:9-23 activated TCR): 48.8 µM
- IC50 ([2]; B:9-23 activated TCR): 2.8 µM

Compound: Oc1ncnc2[nH]c(C(O)c3ccccc3)nc12 (stereo not shown) [p4:22]
- IC50 (DQ8): > 100 µM

Compound: NC(Cn1ccc(=O)c(O)c1)C(=O)O (stereo not shown) [p4:14]
- Competitive Binding Assay B:9-23 to DQ8 (IC50) (DQ8; [6]): No inhibition

Compound: O=[PH](O)C(O)c1ccccc1 (stereo not shown) [p6:17]
- Inhibition of chromogranin presentation to the BDC 2.5 hybridoma (BDC 2.5 T cell hybridoma): no inhibition
- IC50 (DQ8): > 100 µM

Compound: CC1(CO)COC(=O)C(C)(C2(C)NC(C)(CO)COC2=O)N1 (stereo not shown) [p6:28]
- Competitive Binding Assay B:9-23 to DQ8 (IC50) (DQ8; [6]): No inhibition

Compound: O=C(O)C(S)CC(S)C(=O)O (stereo not shown) [p9:17, 3-deoxy-2,4-dithiopentaric acid]
- Inhibition of human T cell receptor recognition of insulin B:9-23 presented by human DQ8 [3]: able to inhibit

Compound: NCC(=O)NC(Cc1ccc(O)cc1)C(=O)O (stereo not shown) [p6:24] (H-Gly-[ξY]-OH)
- IC50 (DQ8): > 100 µM

Compound: O=S1(=O)N2CN3CCN(C2)N1C3
- IC50 [1]: 28.4 µM
- IC50 [2]: 0.5 µM

Compound: [H]/N=C(/NCc1ccccc1)NN(O)O [p4:28]
- IC50 (DQ8): > 100 µM

Compound: OC1CN(Cc2ccccc2)CC1O (stereo not shown) [p4:33]
- Competitive Binding Assay B:9-23 to DQ8 (IC50) (DQ8; [6]): No inhibition

Compound: Nc1nc(O)c2nc(S)c(C(=O)O)nc2n1 [p1:25, 2-amino-4-hydroxy-6-mercapto-7-pteridine carboxylic acid]
- Inhibition of human T cell receptor recognition of insulin B:9-23 presented by human DQ8 [3]: able to inhibit

Compound: CC1CNC2C(=O)NC(=O)NC2N1 (stereo not shown) [p4:5]
- IC50 (DQ8): > 100 µM

Compound: NC(CCCC(N)C(=O)O)C(=O)O (stereo not shown) [p4:34]
- IC50 (DQ8): > 100 µM

Compound: O=Nc1c(S(=O)(=O)O)cc2cc(S(=O)(=O)O)cc(O)c2c1O [p1:4, 4,5-dihydroxy-3-nitroso-2,7-naphthalenedisulfonic acid]
- Response of CD3-stimulated T cell hybridomas [4]: did not change response
- Concentration at which inhibition is exhibited [3]: nanomolar
- Inhibition of human T cell receptor recognition of insulin B:9-23 presented by human DQ8 [3]: able to inhibit

Compound: [H]/N=C(\N/C(N)=N/[H])Nc1ccc([N+](=O)[O-])cc1 [p4:2]
- Competitive Binding Assay B:9-23 to DQ8 (IC50) (DQ8; [6]): No inhibition

Compound: CC1C(c2ccccc2)OCN1C (stereo not shown) [p4:32]
- IC50 (DQ8): < 100 µM

Compound: [H]/N=C(/Nc1ccc(Cl)cc1)NN(O)O [p4:12]
- IC50 (DQ8): > 100 µM

Compound: [H]/N=C(\NN(O)O)NS(=O)(=O)c1ccccc1 [p4:17]
- IC50 (DQ8): > 100 µM

Compound: N=C(N)NC(=N)Nc1ccccc1Cl [p4:1]
- IC50 (DQ8): > 100 µM

Compound: c1cc[n+](CC[n+]2ccccc2)cc1 [p4:13]
- Competitive Binding Assay B:9-23 to DQ8 (IC50) (DQ8; [6]): No inhibition

Compound: [H]/N=C(\NCCC#N)NN(O)O [p4:24]
- Competitive Binding Assay B:9-23 to DQ8 (IC50) (DQ8; [6]): No inhibition

Compound: O=C(O)COC1C=CC(=O)N(CC(=O)O)N1 (stereo not shown) [p9:5, 3-(carboxymethoxy)-6-oxo-3,6-dihydro-1(2H)-pyridazinyl acetic acid]
- Concentration at which inhibition is exhibited [3]: nanomolar
- Inhibition of human T cell receptor recognition of insulin B:9-23 presented by human DQ8 [3]: able to inhibit

Compound: COC(=O)C(C=C(Cl)Cl)N1CCNCC1 (stereo not shown) [p6:23]
- IC50 (DQ8): > 100 µM

Compound: CC(=O)N1C(=O)C2(NCCCN2)c2ccccc21 [p6:34]
- IC50 (DQ8): < 100 µM

Compound: NC(=O)N/N=C/C1CNCCN1 (stereo not shown) [p4:9]
- Competitive Binding Assay B:9-23 to DQ8 (IC50) (DQ8; [6]): No inhibition

Compound: Clc1ccc(Cl)c(OCC2=NCCN2)c1 [p4:15]
- IC50 (DQ8): > 100 µM

Compound: Nc1nc(N)c2nn[nH]c2n1
- IC50 ([1]; B:9-23 activated TCR): 25.5 µM
- IC50 ([2]; B:9-23 activated TCR): 24 µM

Compound: COC(=O)COc1ccc(Cl)cc1C(=O)O [p1:18, 5-chloro-2-(2-methoxy-2-oxoethoxy) benzoic acid]
- Inhibition of human T cell receptor recognition of insulin B:9-23 presented by human DQ8 [3]: able to inhibit

Compound: CN1C(=O)C(N)C(N)N(C)C1=O (stereo not shown) [p6:16]
- Competitive Binding Assay B:9-23 to DQ8 (IC50) (DQ8; [6]): No inhibition

Compound: C[N+]1(C/C=C/Cl)CN2CNCN(C2)C1 (stereo not shown) [p6:2]
- Competitive Binding Assay B:9-23 to DQ8 (IC50) (DQ8; [6]): No inhibition

Compound: NCc1c(Cl)c(Cl)c(Cl)c(CN)c1Cl [p6:19]
- IC50 (DQ8): > 100 µM

Compound: CCCCN(C)C12CN3CN(CN(C3)C1)C2 [p4:35]
- IC50 (DQ8): > 100 µM

Compound: [H]/N=C(\NCCOC)NN(O)O [p4:31]
- IC50 (DQ8): > 100 µM

Compound: [H]/N=C(\NCC[N+](C)(C)C)NN([O-])O [p4:3]
- Competitive Binding Assay B:9-23 to DQ8 (IC50) (DQ8; [6]): No inhibition

Compound: [H]/N=C(/N/N=C/c1ccncc1)NN(O)O [p4:4]
- Competitive Binding Assay B:9-23 to DQ8 (IC50) (DQ8): No inhibition

Compound: NC1(N)Sc2nc3ccccc3nc2S1
- IC50 ([1]; B:9-23 activated TCR): 70.4 µM
- IC50 ([2]; B:9-23 activated TCR): 14.8 µM

Compound: COc1ccc2c(n1)Sc1c(N)nc(N)nc1N2 [p1:22, 7-methoxy-10H-pyrido[2,3-b]pyrimido[4,5-e][1,4]thiazine-2,4-diamine]
- Inhibition of human T cell receptor recognition of insulin B:9-23 presented by human DQ8 [3]: able to inhibit

Compound: O=P(O)(O)CCCP(=O)(O)O [p9:1, 3-phosphonopropylphosphonic acid]
- Inhibition of human T cell receptor recognition of insulin B:9-23 presented by human DQ8 [3]: able to inhibit

Compound: O=S(=O)(O)C(O)CC(O)S(=O)(=O)O (stereo not shown) [p9:10, 1,3-dihydroxy-1,3-propanedisulfonic acid]
- Inhibition of human T cell receptor recognition of insulin B:9-23 presented by human DQ8 [3]: able to inhibit

Compound: C1CCCNCCNCCNCC1 [p6:27]
- Competitive Binding Assay B:9-23 to DQ8 (IC50) (DQ8; [6]): No inhibition

Compound: NC(=O)N/N=C/Cn1cc([N+](=O)[O-])c(=O)[nH]c1=O [p4:23]
- IC50 (DQ8): > 100 µM

Compound: [H]/N=C(\NCCCCl)NN(O)O [p4:19]
- IC50 (DQ8): > 100 µM

Compound: N=C(N)c1ccc(/C=C/c2ccc(C(=N)N)cc2)cc1 [p6:33]
- Competitive Binding Assay B:9-23 to DQ8 (IC50) (DQ8; [6]): No inhibition

Compound: CC=C1C(C(=O)O)C1C(=O)O (stereo not shown) [p9:35, 3-ethylidene-1,2-cyclopropanedicarboxylic acid]
- Inhibition of human T cell receptor recognition of insulin B:9-23 presented by human DQ8 [3]: able to inhibit

Compound: CCCC(N)C(=O)NC(C(=O)O)C(C)C (stereo not shown) [p4:20] (H-[Nva]-Val-OH; configuration not given here)
- IC50 (DQ8): > 100 µM

Compound: [H]/N=C(\NCCS(C)(=O)=O)NN(O)O [p4:26]
- Competitive Binding Assay B:9-23 to DQ8 (IC50) (DQ8; [6]): No inhibition

Compound: CN(C)C(Cl)(N(C)C)C(Cl)(N(C)C)N(C)C [p6:18]
- IC50 for blocking T cell stimulation from endogenously processed insulin [5]: low nanomolar
- IC50 (DQ8): > 100 µM

Compound: c1ccc(CCN2CCCCCCCC2)nc1 [p4:21]
- Competitive Binding Assay B:9-23 to DQ8 (IC50) (DQ8; [6]): No inhibition

Compound: C=CC(OC(=O)CC)(c1ccccc1)C1CCNCC1 (stereo not shown) [p6:32]
- Competitive Binding Assay B:9-23 to DQ8 (IC50) (DQ8): No inhibition

Compound: O=C(O)COc1ccc(I)cc1I [p1:16, (2,4-diiodophenoxy)acetic acid]
- Response of CD3-stimulated T cell hybridomas [4]: did not change response
- Concentration at which inhibition is exhibited [3]: nanomolar
- Inhibition of human T cell receptor recognition of insulin B:9-23 presented by human DQ8 [3]: able to inhibit

Compound: CCC(N)C(O)c1ccccc1 (stereo not shown) [p4:30]
- Competitive Binding Assay B:9-23 to DQ8 (IC50) (DQ8): No inhibition

Compound: O=S(=O)(O)CCc1nnn[nH]1 [p9:23, 2-(1H-tetraazol-5-yl)ethanesulfonic acid]
- Concentration at which inhibition is exhibited [3]: nanomolar
- Inhibition of human T cell receptor recognition of insulin B:9-23 presented by human DQ8 [3]: able to inhibit

Compound: O=C1CN(C2CCCCC2N2CC(=O)NC(=O)C2)CC(=O)N1 (stereo not shown) [p6:31]
- Competitive Binding Assay B:9-23 to DQ8 (IC50) (DQ8; [6]): No inhibition

Compound: [H]/N=C(\NCCN(C)C)NN(O)O [p4:7]
- IC50 (DQ8): < 100 µM

Compound: NC1CC2NC3CCCCC3NC2CC1N (stereo not shown) [p6:7]
- Competitive Binding Assay B:9-23 to DQ8 (IC50) (DQ8; [6]): No inhibition

Compound: 5-((2,5-dichloro-4-(hydroxy(oxido)amino)phenyl)diazenyl)-2-imino-4-methyl-2,3-dihydro-1,3-thiazole [p1:21]
- Inhibition of human T cell receptor recognition of insulin B:9-23 presented by human DQ8 [3]: able to inhibit

Compound: NC1(COS(=O)(=O)O)CCN1 (stereo not shown) [p6:30]
- Competitive Binding Assay B:9-23 to DQ8 (IC50) (DQ8; [6]): No inhibition

Compound: CN(Cc1ccccc1)Cn1ccnc1 [p4:6]
- Competitive Binding Assay B:9-23 to DQ8 (IC50) (DQ8; [6]): No inhibition

Compound: [H]/N=C(\NCCOC(C)=O)NN(O)O [p4:8]
- Competitive Binding Assay B:9-23 to DQ8 (IC50) (DQ8; [6]): No inhibition

Compound: NC(=O)c1cc(Br)cc(C2CCCCC2)c1O [p1:12, 5-bromo-3-cyclohexyl-2-hydroxybenzamide]
- Response of CD3-stimulated T cell hybridomas [4]: did not change response
- Concentration at which inhibition is exhibited [3]: nanomolar
- Inhibition of human T cell receptor recognition of insulin B:9-23 presented by human DQ8 [3]: able to inhibit

Compound: C[N+]1(C/C=C/CCl)CN2CNCN(C2)C1 (stereo not shown) [p6:8]
- Competitive Binding Assay B:9-23 to DQ8 (IC50) (DQ8; [6]): No inhibition
